Tests used:
[1] = molecular target: T1, Delta-type opioid receptor (Homo sapiens, UniProt P41143); assay: Antagonist activity at human delta opioid receptor expressed in CHO cells assessed as inhibition of SNC80-induced [35S]GTPgammaS binding after 60 mins by scintillation counting; format: functional, cell-based
[2] = molecular target: T2, Mu-type opioid receptor (Homo sapiens, UniProt P35372); assay: Partial agonist activity at human mu opioid receptor expressed in CHO cells assessed as [35S]GTPgammaS binding after 60 mins by scintillation counting relative to untreated-control; format: functional, cell-based
T2 sequence (P35372 whole entry): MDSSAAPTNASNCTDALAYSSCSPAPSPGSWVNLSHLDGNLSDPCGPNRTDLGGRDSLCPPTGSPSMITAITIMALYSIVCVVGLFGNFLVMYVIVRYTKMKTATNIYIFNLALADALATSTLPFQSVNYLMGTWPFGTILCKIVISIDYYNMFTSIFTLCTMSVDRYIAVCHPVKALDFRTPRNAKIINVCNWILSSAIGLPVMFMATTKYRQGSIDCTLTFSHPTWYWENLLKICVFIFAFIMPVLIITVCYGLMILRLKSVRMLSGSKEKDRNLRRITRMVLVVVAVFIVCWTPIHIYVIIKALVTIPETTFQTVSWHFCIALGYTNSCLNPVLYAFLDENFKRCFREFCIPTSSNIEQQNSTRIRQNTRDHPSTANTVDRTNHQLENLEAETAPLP

[3] = molecular target: T2, Mu-type opioid receptor; assay: Antagonist activity at human mu opioid receptor expressed in CHO cells assessed as inhibition of DAMGO-induced [35S]GTPgammaS binding after 60 mins by scintillation counting relative to untreated-control; format: functional, cell-based
[4] = molecular target: T3, Kappa-type opioid receptor (Homo sapiens, UniProt P41145); assay: Antagonist activity at human kappa opioid receptor expressed in CHO cells assessed as inhibition of U50,488-induced [35S]GTPgammaS binding after 60 mins by scintillation counting; format: functional, cell-based
T3 sequence (P41145 whole entry): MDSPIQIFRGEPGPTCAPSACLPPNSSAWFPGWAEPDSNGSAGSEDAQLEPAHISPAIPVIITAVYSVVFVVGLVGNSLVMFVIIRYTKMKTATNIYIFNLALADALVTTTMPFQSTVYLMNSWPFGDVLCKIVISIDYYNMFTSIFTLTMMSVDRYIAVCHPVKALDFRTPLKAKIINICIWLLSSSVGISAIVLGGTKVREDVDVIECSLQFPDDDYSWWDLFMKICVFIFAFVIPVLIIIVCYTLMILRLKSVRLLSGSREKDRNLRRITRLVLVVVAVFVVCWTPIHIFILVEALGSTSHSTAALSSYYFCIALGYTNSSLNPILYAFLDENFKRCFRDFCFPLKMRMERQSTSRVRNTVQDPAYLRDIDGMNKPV

[5] = molecular target: T1, Delta-type opioid receptor; assay: Displacement of [3H]Naltrindole from human delta opioid receptor expressed in CHO cells after 3 hrs by scintillation counting; format: cell-based
[6] = molecular target: T3, Kappa-type opioid receptor; assay: Agonist activity at human kappa opioid receptor expressed in CHO cells assessed as [35S]GTPgammaS binding after 60 mins by scintillation counting; format: functional, cell-based
[7] = molecular target: T3, Kappa-type opioid receptor; assay: Displacement of [3H]U69,593 from human kappa opioid receptor expressed in CHO cells after 60 mins by scintillation counting; format: cell-based
[8] = molecular target: T1, Delta-type opioid receptor; assay: Agonist activity at human delta opioid receptor expressed in CHO cells assessed as [35S]GTPgammaS binding after 60 mins by scintillation counting; format: functional, cell-based
[9] = species on record: Homo sapiens; assay: Selectivity ratio of Ki for human kappa opioid receptor to Ki for human mu opioid receptor
[10] = molecular target: T2, Mu-type opioid receptor; assay: Displacement of [3H]DAMGO from human mu opioid receptor expressed in CHO cells after 60 mins by scintillation counting; format: cell-based
[11] = species on record: Homo sapiens; assay: Selectivity ratio of Ki for human delta opioid receptor to Ki for human mu opioid receptor
[12] = molecular target: T2, Mu-type opioid receptor; assay: Antagonist activity at human mu opioid receptor expressed in CHO cells assessed as inhibition of DAMGO-induced [35S]GTPgammaS binding after 60 mins by scintillation counting; format: functional, cell-based
[13] = molecular target: T2, Mu-type opioid receptor; assay: Partial agonist activity at human mu opioid receptor expressed in CHO cells assessed as [35S]GTPgammaS binding after 60 mins by scintillation counting; format: functional, cell-based
[14] = molecular target: T1, Delta-type opioid receptor; assay: Partial agonist activity at human delta opioid receptor expressed in CHO cells assessed as [35S]GTPgammaS binding after 60 mins by scintillation counting; format: functional, cell-based
[15] = molecular target: T1, Delta-type opioid receptor; assay: Partial agonist activity at human delta opioid receptor expressed in CHO cells assessed as [35S]GTPgammaS binding after 60 mins by scintillation counting relative to untreated control; format: functional, cell-based
[16] = molecular target: T2, Mu-type opioid receptor; assay: Agonist activity at human mu opioid receptor expressed in CHO cells assessed as [35S]GTPgammaS binding after 60 mins by scintillation counting relative to untreated-control; format: functional, cell-based

T1 sequence (P41143 whole entry): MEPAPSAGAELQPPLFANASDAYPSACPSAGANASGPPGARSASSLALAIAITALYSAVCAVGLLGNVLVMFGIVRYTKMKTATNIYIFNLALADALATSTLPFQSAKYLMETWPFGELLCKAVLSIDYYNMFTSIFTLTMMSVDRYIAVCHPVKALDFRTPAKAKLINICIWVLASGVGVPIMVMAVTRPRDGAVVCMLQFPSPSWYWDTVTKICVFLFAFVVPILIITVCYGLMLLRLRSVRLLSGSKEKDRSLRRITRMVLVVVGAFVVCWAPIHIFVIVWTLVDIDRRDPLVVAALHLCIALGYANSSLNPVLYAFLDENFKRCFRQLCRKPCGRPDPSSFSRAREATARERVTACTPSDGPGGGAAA

Row | SMILES | IC50 ([1]; cho) | Emax [2] [%] | Imax [3] [%] | IC50 [4] | Ki [5] [nM] | EC50 [6] [nM] | Ki [7] [nM] | EC50 [8] [nM] | Ratio Ki [9] | Ki [10] [nM] | Ratio Ki [11] | IC50 [12] [nM] | EC50 [13] [nM] | EC50 [14] [nM] | IC50 ([1]; read-out: IC50) [nM] | Emax [15] [%] | Emax [16] [%]
1 | C[C@H]1[C@H]2Cc3ccc(C(=O)NCCc4ccc(-c5ccc(O)cc5)cc4)cc3[C@]1(C)CCN2CC1CC1 | Not Active | 31 | 62 | Not Active | 0.78 | 0.26 | 0.36 | 0.31 | – | – | – | – | – | – | – | – | –
2 | CC1C2Cc3ccc(C(=O)NCCc4ccc(-c5ccc(OC(F)(F)F)cc5)cc4)cc3C1(C)CCN2CC1CC1 (racemic) | – | – | – | – | 6.6 | – | 5.2 | – | 3 | 1.8 | 4 | – | – | – | – | – | –
3 | CC1C2Cc3ccc(C(=O)NCCc4ccc(-c5ccc(OC(F)F)cc5)cc4)cc3C1(C)CCN2CC1CC1 (racemic) | – | – | – | – | 0.8 | – | 2.7 | – | 9 | 0.3 | 3 | – | – | – | – | – | –
4 | CC1C2Cc3ccc(C(=O)NCCc4ccc(-c5cccc(O)c5)cc4)cc3C1(C)CCN2CC1CC1 (racemic) | – | – | – | – | 1.2 | – | 1.3 | – | 62 | 0.021 | 57 | – | – | – | – | – | –
5 | CC1C2Cc3ccc(C(=O)NCCc4ccc(-c5ccccc5O)cc4)cc3C1(C)CCN2CC1CC1 (racemic) | Not Active | 48 | 67 | Not Active | 0.24 | 0.086 | 2.1 | 0.16 | – | 0.0056 | – | 64 | 1.5 | – | – | – | –
6 | COc1ccc(-c2ccc(CCNC(=O)c3ccc4c(c3)C3(C)CCN(CC5CC5)C(C4)C3C)cc2)cc1OC (racemic) | – | 32 | 70 | Not Active | 1.5 | 3 | 1.3 | – | 183 | 0.0071 | 211 | 29 | 1.6 | 6.2 | 70 | 73 | –
7 | CC1C2Cc3ccc(C(=O)NCCc4ccc(-c5ccc6c(c5)OCO6)cc4)cc3C1(C)CCN2CC1CC1 (racemic) | Not Active | – | – | Not Active | – | 0.34 | – | 0.8 | – | – | – | – | – | – | – | – | –
8 | COc1ccc(-c2ccc(CCNC(=O)c3ccc4c(c3)C3(C)CCN(CC5CC5)C(C4)C3C)cc2)cc1C (racemic) | Not Active | 21 | 81 | Not Active | – | – | – | 2.8 | – | – | – | – | – | – | – | – | –
9 | COc1ccc2cc(CCNC(=O)c3ccc4c(c3)C3(C)CCN(CC5CC5)C(C4)C3C)ccc2c1 (racemic) | Not Active | – | 76 | Not Active | 2.2 | 1.3 | 0.45 | 7.5 | – | 0.064 | – | 45 | – | – | – | – | 6.6
10 | CC1C2Cc3ccc(C(=O)NCCc4ccc5ccccc5c4)cc3C1(C)CCN2CC1CC1 (racemic) | – | – | – | – | 0.9 | – | 0.2 | – | 1 | 0.18 | 5 | – | – | – | – | – | –
11 | COc1ccc(-c2ccc(CCNC(=O)c3ccc4c(c3)C3(C)CCN(CC5CC5)C(C4)C3C)cc2)cc1 (racemic) | – | – | – | – | 0.18 | – | 1.5 | – | 18 | 0.084 | 2 | – | – | – | – | – | –
12 | COc1cccc(-c2ccc(CCNC(=O)c3ccc4c(c3)C3(C)CCN(CC5CC5)C(C4)C3C)cc2)c1 (racemic) | Not Active | – | – | Not Active | 1.3 | 3.1 | 0.22 | 1.2 | – | – | – | – | – | – | – | – | –
13 | COc1ccccc1-c1ccc(CCNC(=O)c2ccc3c(c2)C2(C)CCN(CC4CC4)C(C3)C2C)cc1 (racemic) | – | – | – | – | 0.84 | – | 0.38 | – | 3 | 0.12 | 7 | – | – | – | – | – | –
14 | CC(C)Oc1ccc(-c2ccc(CCNC(=O)c3ccc4c(c3)C3(C)CCN(CC5CC5)C(C4)C3C)cc2)cc1 (racemic) | Not Active | 35 | 72 | Not Active | – | – | – | 18 | – | – | – | 13 | 2.3 | – | – | – | –
15 | CC1C2Cc3ccc(O)cc3C1(C)CCN2CC1CC1 (racemic) | – | – | – | – | 2 | – | 0.07 | – | – | – | – | – | – | – | – | – | –
